Patent US7671258B2, “Surfactant peptide nanostructures, and uses thereof” (Massachusetts Institute of Technology, priority 2001, dated 2010)
Residues, ends and D or L forms follow the SMILES beside them.

Assay: Cryo-transmission electron microscopy of aqueous peptide solutions (self-assembly)
Assay type: physicochemical
Settings: Cryo-TEM, aqueous solution 5 mg/ml, pH 7
Experimental: Cryo-transmission electron microscopy experiments were performed on aqueous solution of the different peptides at a concentration of 5 mg/ml. In order to solubilize these peptides in water, it was necessary to deprotonate the carboxylic groups by adjusting the pH with a solution of sodium hydroxide 0.1N. The oligopeptides investigated start to be soluble in water at pH 5 to 6, depending on the amino acid sequence. All the experiments presented in this work were carried out using peptide solutions at pH 7. […] The cylindrical assemblers present a three-dimensional transient network somehow similar to flexible polymers in their semidilute or concentrated solutions^22. It should be pointed out that, in the electron micrographs, only a two-dimensional projection of the peptides nanotubes could be imaged. The network below and above a defined point in the space could be relatively distant in three dimensions, while appearing superimposed in the two-dimensional projection. […] These self-assemblies have high axial ratios and extend in length to several tens of micrometers. Additionally, one can easily identify many three-fold junctions or branchings connecting the nanotubes and thus forming the final network. […] Alternatively, two nanotubes could fuse together to form a tentative 4-arm branch. It has been shown that this kind of branching is energetically unstable and, thus, those observed in FIG. 3 are most likely due to the 2-D representation of a spatial network.
In fact, one can easily recognize nanotubes of about 50 nm diameter linked by an increased numbers of three-fold junction. As a result, the branches are more abundant than those observed in the samples VVVVVVD (V6D) (SEQ ID NO: 36), […] (SEQ ID NO: 38) and AAAAAAD (A6D) (SEQ ID NO: 37). They have also a smaller axial ratio and a much smaller average diameter of about 10 to 15 nm. […] (SEQ ID NO: 39) is the most hydrophobic compound with the tail constituted of six leucines. […] These molecular assemblies are very similar to threadlike micellar systems made from traditional amphiphilic molecules such as cetyltrimethylammonium bromide (CTAB)^29-30. It should be noted that a large number of vesicle-like spherical assemblies also appear in the TEM micrograph.
Cryo-TEM micrograph at high resolution provides a detailed structure of the peptide nanotubes formed by AAAAAAD (SEQ ID NO: 35) (see FIG. 4). […] Additionally, helical pitches between 150 and 200 nm, depending on the nanotubes diameter, were also observed. Similar results have been documented with hollow cylinders formed of bilayer membrane of diacetylenic lipids^31. Theories based on molecular chirality have been developed to explain the presence of helical markings that wind around the cylinders^32.

SMILES | morphology of the self-assemblies | morphology of the self-assemblies (listed as AAAAAAD) | nanotube diameter
CC(=O)N[C@H](C(=O)N[C@H](C(=O)N[C@H](C(=O)N[C@H](C(=O)N[C@H](C(=O)N[C@H](C(=O)N[C@@H](CC(=O)O)C(=O)O)C(C)C)C(C)C)C(C)C)C(C)C)C(C)C)C(C)C [V6D, [Acetyl]-VVVVVVD-CO2] (Ac-VVVVVVD-OH) | cylindrical morphologies | – | –
CC(=O)N[C@@H](C)C(=O)N[C@@H](C)C(=O)N[C@@H](C)C(=O)N[C@@H](C)C(=O)N[C@@H](C)C(=O)N[C@@H](C)C(=O)N[C@@H](CC(=O)O)C(=O)O [A6D, [Acetyl]-AAAAAAD-CO2] (Ac-AAAAAAD-OH) | cylindrical morphologies | hollow tubular structures | –
CC(=O)N[C@@H](CC(C)C)C(=O)N[C@@H](CC(C)C)C(=O)N[C@@H](CC(C)C)C(=O)N[C@@H](CC(C)C)C(=O)N[C@@H](CC(C)C)C(=O)N[C@@H](CC(C)C)C(=O)N[C@@H](CC(=O)O)C(=O)N[C@@H](CC(=O)O)C(=O)O [L6D2, [Acetyl]-LLLLLLDD-CO2] (Ac-LLLLLLDD-OH) | does not exhibit any nanotubular structures but rather a network of entangled rodlike micelles | – | –
CC(=O)N[C@@H](C)C(=O)N[C@@H](C)C(=O)N[C@@H](C)C(=O)N[C@@H](C)C(=O)N[C@@H](C)C(=O)N[C@@H](C)C(=O)N[C@@H](CC(=O)O)C(=O)N[C@@H](CC(=O)O)C(=O)O [A6D2, [Acetyl]-AAAAAADD-CO2] (Ac-AAAAAADD-OH) | – | – | about 50 nm
CC(=O)N[C@H](C(=O)N[C@H](C(=O)N[C@H](C(=O)N[C@H](C(=O)N[C@H](C(=O)N[C@H](C(=O)N[C@@H](CC(=O)O)C(=O)N[C@@H](CC(=O)O)C(=O)O)C(C)C)C(C)C)C(C)C)C(C)C)C(C)C)C(C)C [V6D2, [Acetyl]-VVVVVVDD-CO2] (Ac-VVVVVVDD-OH) | cylindrical morphologies | – | –
